In brackets after ≈: the same amount, converted by molar mass. Where two headings read alike, the source gives them in different places. Peptide text beside a SMILES is read from it. * marks the point of attachment. βNA = c1ccc2cc(N*)ccc2c1
Experiments:
S. aureus strain SH1000 = assay: Biofilm prevention, crystal violet assay; format: cell-based, Staphylococcus aureus; details: for biofilm prevention compared with 1771: SH1000; for concentration causing a 50% reduction in biofilm formation: SH1000, 24 h
Method: (§1) An indication of the biofilm prevention capabilities of 1771 and its derivatives 9–14 was achieved through the application of the crystal violet assay. S. aureus strain SH1000 and S. epidermidis strain RP62A were used, as they are strong biofilm formers. Overnight cultures were diluted 1:200 in fresh TSB containing 0.5% glucose (TSB-G), and 100 μL was added to individual wells in a 96-well microtiter plate. One hundred microliters of 1771 and 9–14 were diluted in TSB-G and added to bacteria at a final concentration ranging from 256 to 0.25 μg/mL with subsequent incubation for 24 h at 37 °C in a static incubator. Following incubation, biofilms were washed four times with ddH2O before being stained with 150 μL of 0.1% crystal violet for 30 min at room temperature. Following a further four washes in ddH2O, wells were resuspended in 200 μL of 7% acetic acid. The absorbance intensity of the crystal violet was measured at abs595nm in a Sunrise plate reader. Biomass formed was measured as a percentage of the no-compound control.

[1] = system: S. epidermidis strain RP62A; assay: Biofilm prevention, crystal violet assay; format: cell-based, Staphylococcus epidermidis; details: for concentration causing a 50% reduction in biofilm formation: 24 h
Method: as §1

S. aureus = assay: MIC, broth microdilution (CLSI); format: cell-based, Staphylococcus aureus; details: for MIC: Staphylococcus aureus, read-out: minimum inhibitory concentration; for fold increase in the MIC when compared to 1771: S. aureus and S. epidermidis strains
Method: (§2) S. aureus, S. epidermidis, E. faecalis, and E. faecium strains were routinely cultivated on tryptic soy agar (TSA) and grown for 18 h at 37 °C. S. aureus single colonies were subsequently transferred into 2 mL of tryptic soy broth (TSB) and grown for a further 18 h at 37 °C while being shaken at 180 rpm. S. pyogenes, S. agalactiae, and S. dysgalactiae strains were routinely cultured on TSA supplemented with 5% sheep blood and grown for 18 h at 37 °C with 5% CO2. E. coli was grown in LB broth at 37 °C. For LtaS-deficient strains, TSB was supplemented with 0.5 M NaCl to provide an osmotically balanced environment and instead grown at 30 °C. For strains harboring the pRMC2 tetracycline inducible vector,[61] the growth medium was supplemented with 10 μg/mL chloramphenicol and […] anhydrotetracycline hydrochloride (Sigma). Phenylalanine-arginine β-naphthylamide (PAβN) (Sigma) was dissolved in sterile water.
(§3) B. subtilis, staphylococcal, and enterococcal strains were grown in Mueller Hinton broth (MHB), while streptococcal strains were grown in MHB supplemented with 5% laked horse blood. All strains were grown for 18 h at 37 °C. The overnight cultures were subsequently subcultured 1:200 and grown to the exponential phase (OD600nm = 0.5–0.6) in fresh broth. 1771 and its derivatives 9–14 were reconstituted in DMSO and further diluted by performing a 1:2 serial dilution ranging between 256 and 0.125 μg/mL in a 96-well microtiter plate. One hundred microliters of 0.5 McFarland standardized inoculum (approximately equal to 5 × 10^5 cfu) were then dispensed into each well in the 96-well microtiter plate. The plate was incubated for 18 h at 37 °C.

S. epidermidis = assay: MIC, broth microdilution (CLSI); format: cell-based, Staphylococcus epidermidis; details: Staphylococcus epidermidis, read-out: minimum inhibitory concentration
Method: as §2, §3

LTA = LTA quantification by Western blot; format: cell-based, Staphylococcus aureus; details: strain LAC, 1× and 4× the MIC
Method: Overnight cultures of S. aureus strains were diluted 1:200 in fresh TSB and grown to an optical density of OD600nm 0.3. […] Vancomycin and daptomycin at 1× and 4× MIC were also included as control antibiotics. Cells were then normalized to have 10 mL of OD600nm 0.6, pelleted at 4000 rpm, and resuspended in 300 μL of PBS containing 200 μg/mL lysostaphin. This suspension was then incubated at 37 °C for 45 min to allow digestion of the cell wall to occur. One hundred microlitres of 4× SDS sample buffer were then added, and the mixture was boiled at 95 °C for 20 min. The insoluble material was then removed by pelleting at 16,000 rpm for 10 min. The supernatant containing LTA was then subjected to SDS-PAGE on a 4–20% Tris-glycine gel (Bio-Rad). The gel was transferred onto a PVDF membrane using a Trans-Blot Turbo Transfer System (Bio-Rad). The membrane was blocked overnight in TBST containing 5% semi-skimmed milk before being incubated with a mouse anti-LTA antibody (Hycult; HM2048; 1:2000 dilution) followed by a goat antimouse-HRP secondary antibody (Proteintech; SA00001; 1:2000 dilution) before being visualized using an Amersham-ECL kit (Cytiva).

E. coli strain K12 = assay: Growth inhibition in combination with PAβN; format: cell-based, Escherichia coli; details: PAβN alone up to 100 μg/mL
Method: Phenylalanine-arginine β-naphthylamide (PAβN) is a well-studied efflux pump inhibitor, which can also permeabilize the outer membrane of Gram-negative organisms.[40] […] Without the addition of PAβN (0 μg/mL), neither 1771 nor 13 had any growth inhibitory activity at concentrations up to 64 μg/mL. With the addition of 25 μg/mL of PAβN, the E. coli strain K12 could still grow in the presence of 64 μg/mL of 1771 or 13; however, the growth rate was severely impacted in a dose-dependent manner. […] To further evaluate the Gram-negative coverage of 1771 and 13, we also tested 1771 or 13 in combination with PAβN against Pseudomonas aeruginosa strain PAO1, Klebsiella pneumoniae strain 699 (clinical isolate), and Acinetobacter baumannii strain DF1000 (clinical isolate) (Figure S6a–c).
Figure 8 Permeabilization of the outer membrane renders E. coli susceptible to 1771 and 13. Bacterial growth curves of (a) 1771 and (b) 13 (0–64 μg/mL) in combination with 0, 25, 50, and 100 μg/mL of PAβN. The bacterial growth (OD600nm) was plotted against time following 18 h of growth at 37 °C. The icons represent the mean of three biological replicates.

Structure (SMILES)	MIC (S. aureus; NEWMAN, strain Newman)	MIC (S. aureus; strain EMRSA-15)	MIC (S. aureus; strain LAC)	MIC (S. aureus; strain MRSA252)	MIC (S. aureus; strain MW2)	MIC (S. aureus; strain Mu3)	MIC (S. aureus; strain Mu50)	MIC (S. aureus; strain SH1000)	MIC (S. aureus; strain TW20)	MIC (S. epidermidis; strain 305)	MIC (S. epidermidis; strain 311)	MIC (S. epidermidis; strain 319)	MIC (S. epidermidis; strain 322)	MIC (S. epidermidis; strain 771)	MIC (S. epidermidis; strain 780)	MIC (S. epidermidis; strain RP62A)	concentration causing a 50% reduction in biofilm formation (S. aureus strain SH1000)	concentration causing a 50% reduction in biofilm formation [1]	fold increase in the MIC when compared to 1771 (S. aureus)	other results
COc1ccc2c(ccc3occ(CC(=O)OCC(=O)Nc4nnc(-c5cccc(Cl)c5)o4)c32)c1 [Compound 11, 2-((5-(3-Chlorophenyl)-1,3,4-oxadiazol-2-yl)amino)-2-oxoethyl 2-(7-Methoxynaphtho[2,1-b]furan-1-yl)acetate]	2 µg/mL (≈ 4.07 µM)	2 µg/mL (≈ 4.07 µM)	4 µg/mL (≈ 8.13 µM)	4 µg/mL (≈ 8.13 µM)	2 µg/mL (≈ 4.07 µM)	2 µg/mL (≈ 4.07 µM)	2 µg/mL (≈ 4.07 µM)	2 µg/mL (≈ 4.07 µM)	2 µg/mL (≈ 4.07 µM)	2 to 4 µg/mL (≈ 4.07 to 8.13 µM)	2 µg/mL (≈ 4.07 µM)	2 µg/mL (≈ 4.07 µM)	4 µg/mL (≈ 8.13 µM)	2 µg/mL (≈ 4.07 µM)	4 µg/mL (≈ 8.13 µM)	2 to 4 µg/mL (≈ 4.07 to 8.13 µM)	–	–	–	biofilm prevention compared with 1771 (S. aureus strain SH1000): better than 1771; biofilm prevention compared with 1771 [1]: better than 1771
Cc1c(N)cccc1Cn1ccc(OCCc2cccs2)cc1=O [nilofabicin]	–	–	–	–	–	–	–	–	–	–	–	–	–	–	–	–	–	–	–	LTA signal by Western blot (LTA): substantial decrease in LTA production
O=C(COC(=O)Cc1coc2ccc3ccccc3c12)Nc1nnc(-c2cccc(Cl)c2)o1 [Compound 10, 2-((5-(3-Chlorophenyl)-1,3,4-oxadiazol-2-yl)amino)-2-oxoethyl 2-(Naphtho[2,1-b]furan-1-yl)acetate]	64 µg/mL (≈ 139 µM)	32 to 64 µg/mL (≈ 69.3 to 139 µM)	64 µg/mL (≈ 139 µM)	64 µg/mL (≈ 139 µM)	64 µg/mL (≈ 139 µM)	64 µg/mL (≈ 139 µM)	64 µg/mL (≈ 139 µM)	64 µg/mL (≈ 139 µM)	64 µg/mL (≈ 139 µM)	32 to 64 µg/mL (≈ 69.3 to 139 µM)	32 to 64 µg/mL (≈ 69.3 to 139 µM)	64 µg/mL (≈ 139 µM)	64 µg/mL (≈ 139 µM)	32 to 64 µg/mL (≈ 69.3 to 139 µM)	32 to 64 µg/mL (≈ 69.3 to 139 µM)	64 µg/mL (≈ 139 µM)	32 to 64 µg/mL	16 to 64 µg/mL	4- to 16 fold	–
COc1ccc2c(ccc3occ(CC(=O)OCC(=O)Nc4nnc(-c5ccccc5)o4)c32)c1 [Compound 9, 2-Oxo-2-((5-phenyl-1,3,4-oxadiazol-2-yl)amino)ethyl 2-(7-Methoxynaphtho[2,1-b]furan-1-yl)acetate]	32 µg/mL (≈ 70 µM)	64 µg/mL (≈ 140 µM)	32 to 64 µg/mL (≈ 70 to 140 µM)	64 µg/mL (≈ 140 µM)	64 µg/mL (≈ 140 µM)	64 µg/mL (≈ 140 µM)	64 µg/mL (≈ 140 µM)	32 µg/mL (≈ 70 µM)	32 µg/mL (≈ 70 µM)	64 µg/mL (≈ 140 µM)	64 µg/mL (≈ 140 µM)	64 µg/mL (≈ 140 µM)	64 µg/mL (≈ 140 µM)	64 µg/mL (≈ 140 µM)	32 µg/mL (≈ 70 µM)	32 µg/mL (≈ 70 µM)	32 to 64 µg/mL	16 to 64 µg/mL	4- to 16 fold	–
O=C(COC(=O)Cc1coc2ccc3ccccc3c12)Nc1nnc(-c2ccc(F)cc2)o1 [Compound 12, 2-((5-(4-Fluorophenyl)-1,3,4-oxadiazol-2-yl)amino)-2-oxoethyl 2-(Naphtho[2,1-b]furan-1-yl)acetate]	8 µg/mL (≈ 18 µM)	8 µg/mL (≈ 18 µM)	8 µg/mL (≈ 18 µM)	16 µg/mL (≈ 35.9 µM)	8 µg/mL (≈ 18 µM)	8 µg/mL (≈ 18 µM)	4 to 8 µg/mL (≈ 8.98 to 18 µM)	8 µg/mL (≈ 18 µM)	8 µg/mL (≈ 18 µM)	8 µg/mL (≈ 18 µM)	4 to 8 µg/mL (≈ 8.98 to 18 µM)	4 to 8 µg/mL (≈ 8.98 to 18 µM)	8 µg/mL (≈ 18 µM)	4 to 8 µg/mL (≈ 8.98 to 18 µM)	4 to 8 µg/mL (≈ 8.98 to 18 µM)	4 to 8 µg/mL (≈ 8.98 to 18 µM)	–	–	–	biofilm prevention compared with 1771 (S. aureus strain SH1000): worse than 1771; biofilm prevention compared with 1771 [1]: better
O=C(COC(=O)Cc1coc2ccc3ccccc3c12)Nc1nnc(-c2ccccc2)s1 [Compound 14, 2-Oxo-2-((5-phenyl-1,3,4-thiadiazol-2-yl)amino)ethyl 2-(Naphtho[2,1-b]furan-1-yl)acetate]	> 64 µg/mL	> 64 µg/mL	> 64 µg/mL	> 64 µg/mL	> 64 µg/mL	> 64 µg/mL	> 64 µg/mL	> 64 µg/mL	> 64 µg/mL	> 64 µg/mL	> 64 µg/mL	> 64 µg/mL	> 64 µg/mL	> 64 µg/mL	> 64 µg/mL	> 64 µg/mL	32 to 64 µg/mL	16 to 64 µg/mL	4- to 16 fold	–
NC(N)=NCCC[C@H](NC(=O)[C@@H](N)Cc1ccccc1)C(=O)Nc1ccc2ccccc2c1 [PAβN, Phenylalanine-arginine β-naphthylamide] (H-Phe-Arg-βNA)	–	–	–	–	–	–	–	–	–	–	–	–	–	–	–	–	–	–	–	impact on growth (E. coli strain K12): very limited impact on growth

— paper PMC10644342, “Improved Antibacterial Activity of 1,3,4-Oxadiazole-Based Compounds That Restrict Staphylococcus aureus Growth Independent of LtaS Function” (ACS Infectious Diseases, 2023)
